According to patent US20090215752A1, “Compounds, preparation and therapeutic use thereof” (priority 2005, published 2009):
pIC50: −log10 of the molar value.

Experiments:
sigma 1 receptors = target: T1, sigma 1 receptors (Cavia porcellus, UniProt Q60492); assay: Sigma 1 receptor binding ([3H](+)pentazocine); settings: [3H](+)pentazocine 2 nM, guinea pig cerebral cortex, read-out: σ1 percentage inhibition at 10 μM
T1 construct: The sigma 1 receptors were isolated from guinea pig cerebral cortex; from tissue; host or cells: guinea pig cerebral cortex
Description: The sigma 1 receptors were isolated from guinea pig cerebral cortex according to the method described in Bowen et al., 1993.
Sigma 1 receptor binding was determined by a radioligand method using tritium-labelled (+)pentazocine (2 nM) as substrate (Bowen et al., 1993). Sigma 2 receptor binding was determined by a radioligand method using tritium-labelled DTG (+300 nM (+)pentazocine) (5 nM) as substrate (Bowen et al., 1993). Ligand radioactivity was determined by liquid scintillation counting. For sigma 1 binding evaluation, ligand incubations were carried out for one hundred fifty minutes at 22° C. For sigma 2 binding evaluation, ligand incubations were carried out for one hundred twenty minutes at 22° C. The experiments were conducted in duplicate.
The specific ligand binding to the sigma receptors was defined as the difference between the total binding and the non specific binding determined in presence of an excess of unlabelled ligand. The results obtained are presented in Table 4 hereinbelow and are expressed as percent of control specific binding and as a percent inhibition of control specific binding obtained in presence of 10 μM of substance.

σ receptors = assay: Isolated organ bioassay, field-stimulated vas deferens: test for agonist activity; parameters: species or system guinea pig; settings: mean, n=2
Description: Segments of guinea pig vas deferens were suspended in 20-ml organ baths containing an oxygenated (95% O2 and 5% CO2) and pre-warmed (37° C.) physiological salt solution of the following composition (in mM): NaCl 118.0, KCl 4.7, MgSO4 1.2, CaCl2 2.5, KH2PO4 1.2, NaHCO3 25.0 and glucose 11.0 (pH 7.4). Yohimbine (1 μM), (−) sulpiride (1 μM), atropine (1 μM) and naloxone (1 μM) were also present throughout the experiments to block the α2-adrenergic, dopamine D2, muscarinic and opioid receptors, respectively. The tissues were connected to force transducers for isometric tension recordings. They were stretched to a resting tension of 0.5 g, allowed to equilibrate for at least 30 min during which time they were washed repeatedly and the tension readjusted. Thereafter, they were stimulated electrically using a constant current stimulator.
The tissues were exposed to a submaximal concentration of the reference agonist (+) SKF-10047 (100 μM) to verify responsiveness and to obtain a control response. Following washings and recovery of the twitch contraction amplitude, the tissues were exposed to increasing concentrations of substance or the same agonist. The different concentrations were added cumulatively and each was left in contact with the tissues until a stable response was obtained or for a maximum of 15 min. If an agonist-like response (enhancement of twitch contractions) was obtained, the reference antagonist rimcazole (10 μM) was tested against the highest concentration of substance to confirm the involvement of the σ receptors in this response.
The parameter measured was the maximum change in the twitch contraction amplitude induced by each compound concentration. The results are expressed as a percent variation of the control twitch contraction amplitude (mean values). The effects of substance tested at 1.0 10^−6 M, 3.0 10^−6 M and 1.0 10^−5 M for agonist and antagonist activities at the σ receptors in the guinea pig vas deferens bioassay are summarized in Tables 6-7 where those of the reference compounds are also reported.

PDE2 = target: T2, PDE2 (Homo sapiens, UniProt O00408); assay: Inhibition of PDE2 (radioenzymatic phosphodiesterase assay); format: biochemical; settings: Table 1, 1 μM cyclic AMP
T2 construct: PDE2 was isolated from human platelets, provided by Etablissement Français du Sang-Alsace; tissue Etablissement Français du Sang-Alsace; host or cells: human platelets
Description: (§1) 2.1.1. Isolation of Phosphodiesterases from Smooth Muscle A 3 g segment of bovine aortic media cut into pieces with scissors was homogenized with an ultra-turrax then a potter glass/glass homogenizer in 7 volumes by weight of buffer A containing a protease inhibitor cocktail (20 mM Tris-HCl, 0.25 M saccharose, 2 mM magnesium acetate, 1 mM dithiothreitol, 5 mM EGTA, 2000 U/ml aprotinin, 10 mg/l leupeptin and 10 mg/l soya trypsic inhibitor). The homogenizate was centrifuged at 105,000 g for 1 hour. The supernatant was loaded on a DEAE-Sephacel column (15×1.6 cm) pre-equilibrated with buffer B (buffer A without the saccharose, EGTA and protease inhibitors). The column was washed until there was no detectable absorption at 280 nm, then eluted with a linear gradient of NaCl (0-0.5 M) in buffer B. 3-ml fractions were collected and enzyme activity was determined under the conditions described hereinbelow to localize the different enzymes PDE1, PDE3, PDE4 and PDE5 which were aliquoted and frozen at −80° C. (Lugnier et al., Biochem. Phamacol., 1986, 35: 1746-1751). PDE2 was isolated from human platelets, provided by Etablissement Français du Sang-Alsace, according to Kameni Tcheudji J F et al., (J. Mol. Biol. 2001; 310: 181-791), and stored until use at −80° C. in small aliquots.
(§2) Cyclic nucleotide phosphodiesterase activity was determined by a radioenzymatic method using tritium-labelled cyclic GMP or AMP (1 μM) as substrate (Lugnier et al., 1986). ^3H-labelled adenosine or guanosine monophosphate formed by hydrolysis of the radiolabelled cyclic nucleotide was then converted to ^3H-labelled adenosine or guanosine in a second reaction with […] in excess. The nucleoside formed was separated from the nucleotides by anion exchange chromatography. Nucleoside radioactivity was determined by liquid scintillation counting. Enzymatic incubations were carried out under conditions allowing no more than 15% hydrolysis of the substrate; each point was performed in duplicate.
The concentration of substance which inhibits enzymatic activity by 50% (IC50) at 1 μM cyclic AMP was calculated by nonlinear regression from the experimental values of hydrolysis rate (Prism, GraphPad).

PDE1 = assay: Selectivity: inhibition of PDE1 (radioenzymatic assay); format: biochemical, bovine; settings: Table 2
Description: as §1, with “PDE2 was isolated from human platelets, provided by Etablissement Français du Sang-Alsace, according to Kameni Tcheudji J F et al., (J. Mol. Biol. 2001; 310: 181-791), and stored until use at −80° C. in small aliquots.” left out
as §2, with “The nucleoside formed was separated from the nucleotides by anion exchange chromatography.” left out, “Enzymatic incubations were carried out under conditions allowing no more than 15% hydrolysis of the substrate; each point was performed in duplicate.” left out
The activity of the compounds was evaluated on other phosphodiesterase isoforms, particularly basal state or calmodulin-activated PDE1 from vascular smooth muscle, PDE3, PDE4 and PDE5 from vascular smooth muscle. The results obtained are presented in Tables 1 and 2 hereinbelow and are expressed as the percentage inhibition of enzymatic activity produced by […] of the test compound.

T2 sequence (O00408 whole entry): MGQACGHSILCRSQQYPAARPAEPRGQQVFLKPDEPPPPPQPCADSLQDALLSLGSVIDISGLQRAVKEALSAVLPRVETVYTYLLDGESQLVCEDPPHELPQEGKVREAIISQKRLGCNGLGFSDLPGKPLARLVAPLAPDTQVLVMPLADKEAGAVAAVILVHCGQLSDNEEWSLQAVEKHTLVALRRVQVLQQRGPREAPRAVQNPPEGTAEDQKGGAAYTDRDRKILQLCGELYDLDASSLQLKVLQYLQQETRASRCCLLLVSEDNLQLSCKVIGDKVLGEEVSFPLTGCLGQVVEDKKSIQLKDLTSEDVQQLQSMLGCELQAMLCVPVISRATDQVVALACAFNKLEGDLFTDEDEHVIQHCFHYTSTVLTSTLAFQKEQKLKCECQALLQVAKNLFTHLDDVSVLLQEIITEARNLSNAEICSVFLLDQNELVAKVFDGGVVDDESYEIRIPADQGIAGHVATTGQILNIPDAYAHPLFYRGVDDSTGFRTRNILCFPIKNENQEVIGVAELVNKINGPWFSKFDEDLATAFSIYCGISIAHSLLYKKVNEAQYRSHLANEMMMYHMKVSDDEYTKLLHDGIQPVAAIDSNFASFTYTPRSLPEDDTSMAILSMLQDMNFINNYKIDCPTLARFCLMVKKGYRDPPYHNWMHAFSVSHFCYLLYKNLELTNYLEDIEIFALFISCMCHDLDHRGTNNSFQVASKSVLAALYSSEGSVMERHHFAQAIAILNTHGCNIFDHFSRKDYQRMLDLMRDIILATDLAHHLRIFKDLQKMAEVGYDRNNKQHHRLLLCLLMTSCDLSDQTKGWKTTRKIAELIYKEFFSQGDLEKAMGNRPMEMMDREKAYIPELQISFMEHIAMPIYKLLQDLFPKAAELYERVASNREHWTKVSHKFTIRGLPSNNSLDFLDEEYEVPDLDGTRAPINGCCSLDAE
T1 sequence (Q60492 whole entry): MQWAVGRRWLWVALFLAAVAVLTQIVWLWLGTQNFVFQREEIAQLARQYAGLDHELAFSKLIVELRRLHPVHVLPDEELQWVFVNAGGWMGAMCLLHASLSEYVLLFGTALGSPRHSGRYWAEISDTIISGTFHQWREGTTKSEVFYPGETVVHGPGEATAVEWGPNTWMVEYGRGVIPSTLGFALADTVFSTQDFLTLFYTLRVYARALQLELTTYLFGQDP

COc1cc2c(c(OC)c1-c1ccccc1)C(c1cccc(C(N)=O)c1)=NCC(=O)N2C [Compound 17, 3-(6,8-Dimethoxy-1-methyl-2-oxo-7-phenyl-2,3-dihydro-1H-benzo[e][1,4]diazepin-5-yl)-benzamide]
inhibition at 10 µM (sigma 1 receptors): 93%
Response to the compound, variation of twitch contraction amplitude (σ receptors; 1.0 10^−5 M): +33%
Response to the compound, variation of twitch contraction amplitude (σ receptors; 1.0 10^−6 M): 0%
Response to the compound, variation of twitch contraction amplitude (σ receptors; 3.0 10^−6 M): 0%
Response to the highest concentration of the compound +Rimcazole (1.0 10^−5 M) (σ receptors; highest compound concentration plus rimcazole 1.0 10^−5 M): −9%
inhibition at 10 µM (PDE2; 10 μM compound, read-out: PDE2 percentage inhibition at 10 μM): 80%
pIC50 (PDE2; value in square brackets, read-out: PDE2 IC50): 6.10
PDE1 percentage inhibition at 10 μM (PDE1; 10 μM compound): 22%
pIC50 (PDE1; value in square brackets): 4.43
